The text below walks through data of US12594276B2, “Inhibitors of human immunodeficiency virus replication” (ViiV Healthcare UK (No.5) Limited, priority 2024, dated 2026).

Bounds are passed on as bounds.

The test system of series [1] is recombinant NL4-3 virus (nef section replaced with Renilla luciferase gene) in MT-2 cells. Nature of the series: HIV cell culture assay (antiviral activity, luciferase readout). The note with it: Renilla, NL43, MT-2 cells infected for 4-5 days with recombinant NL4-3 Renilla luciferase virus. It counts as cell-based. A digest of the protocol: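 EC50 was derived by median-effect fitting of Renilla luciferase signal from MT-2 cells. These cells were infected for 4–5 days with NL4-3 reporter virus (nef partly replaced by luciferase; made in 293T cells) in the presence of serially diluted compound. Activity was quantified with a live-cell luciferase substrate.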

Series [2] in a line: Compound cytotoxicity, XTT-based colorimetric assay. It counts as cell-based. The conditions noted are these: human; uninfected MT2 cells, day 4, XTT; read-out: CC50. Put shortly: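 Uninfected MT2 cells were treated with compound under the same protocol as the antiviral assay. Viability was read on day 4 with an XTT colorimetric assay, from which CC50 values were derived.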
For orientation: Tetrazolium dyes change colour on reduction, which living cells bring about.

As usually defined, the EC50 is the concentration that produces a half-maximal response. What is called CC50 is the concentration that lowers cell viability or growth by half. Turning to `CCc1cc(C2CCC(F)(F)CC2)nc2nc([C@H](Cc3cc(F)cc(F)c3)NC(=O)Cn3nc(C(F)F)c4c3C[C@H]3C[C@@H]43)n(-c3ccc(Cl)c4c(NS(C)(=O)=O)nn(CCOC)c34)c(=O)c12` (relative stereo) [Example 636, N-[(1S)-1-[(3P)-3-[4-chloro-3-methanesulfonamido-1-(2-methoxyethyl)-1H-indazol-7-yl]-7-(4,4-difluorocyclohexyl)-5-ethyl-4-oxo-3H,4H-pyrido[2,3-d]pyrimidin-2-yl]-2-(3,5-difluorophenyl)ethyl]-2-[(2R*,4R*)-9-(difluoromethyl)-7,8-diazatricyclo[4.3.0.0^2,^4]nona-1(6),8-dien-7-yl]acetamide], the EC50 in series [1] stood at 0.015 nM. The CC50 at 4 days in series [2] was > 50 nM.

In the case of `CCc1cc(C2CCC(F)(F)CC2)nc2nc([C@H](Cc3cc(F)cc(F)c3)NC(=O)Cn3nc(C(F)(F)F)c4c3C[C@H]3C[C@@H]43)n(-c3ccc(Cl)c4c(NS(C)(=O)=O)nn(CCCOC)c34)c(=O)c12` (relative stereo) [Example 641, N-[(1S)-1-[(3P)-3-[4-chloro-3-methanesulfonamido-1-(3-methoxypropyl)-1H-indazol-7-yl]-7-(4,4-difluorocyclohexyl)-5-ethyl-4-oxo-3H,4H-pyrido[2,3-d]pyrimidin-2-yl]-2-(3,5-difluorophenyl)ethyl]-2-[(2R*,4R*)-9-(trifluoromethyl)-7,8-diazatricyclo[4.3.0.0^2,^4]nona-1(6),8-dien-7-yl]acetamide], in series [1], the half-maximal effective concentration (EC50) was determined as 0.029 nM. Besides, the CC50 at 4 days in series [2] is > 50 nM.

In the case of `CCc1cc(C2CCC(F)(F)CC2)nc2nc([C@H](Cc3cc(F)cc(F)c3)NC(=O)Cn3nc(C(F)F)c4c3C[C@H]3C[C@@H]43)n(-c3ccc(Cl)c4c(NS(C)(=O)=O)nn(CCCOC)c34)c(=O)c12` (relative stereo) [Example 643, N-[(1S)-1-[(3P)-3-[4-chloro-3-methanesulfonamido-1-(3-methoxypropyl)-1H-indazol-7-yl]-7-(4,4-difluorocyclohexyl)-5-ethyl-4-oxo-3H,4H-pyrido[2,3-d]pyrimidin-2-yl]-2-(3,5-difluorophenyl)ethyl]-2-[(2R*,4R*)-9-(difluoromethyl)-7,8-diazatricyclo[4.3.0.0^2,^4]nona-1(6),8-dien-7-yl]acetamide], the EC50 in series [1] turned out to be 0.017 nM. The CC50 at 4 days in series [2] was > 50 nM.

For `Cc1cc(C2CCC(F)(F)CC2)nc2nc([C@H](Cc3cc(F)cc(F)c3)NC(=O)Cn3nc(C4CC4)c4c3C[C@@H]3C[C@H]43)n(-c3ccc(Cl)c4c(NS(C)(=O)=O)nn([C@H](C)C(=O)N5C[C@@H](C)O[C@@H](C)C5)c34)c(=O)c12` (relative stereo) [Example 679, N-[(1S)-1-[(3P)-3-{4-chloro-1-[(2R)-1-[(2R,6S)-2,6-dimethylmorpholin-4-yl]-1-oxopropan-2-yl]-3-methanesulfonamido-1H-indazol-7-yl}-7-(4,4-difluorocyclohexyl)-5-methyl-4-oxo-3H,4H-pyrido[2,3-d]pyrimidin-2-yl]-2-(3,5-difluorophenyl)ethyl]-2-[(2R*,4R*)-9-cyclopropyl-7,8-diazatricyclo[4.3.0.0^2,^4]nona-1(6),8-dien-7-yl]acetamide], in series [1], the EC50 stood at 0.012 nM. The CC50 at 4 days in series [2] was > 20 nM.

Regarding `Cc1cc(C2CCC(F)(F)CC2)nc2nc([C@H](Cc3cc(F)cc(F)c3)NC(=O)Cn3nc(C4CC4)c4c3C[C@@H]3C[C@H]43)n(-c3ccc(Cl)c4c(NS(C)(=O)=O)nn(C[C@@H](C)N5C[C@H](F)C[C@H](F)C5)c34)c(=O)c12` (relative stereo) [Example 685, N-[(1S)-1-[(3P)-3-{4-chloro-1-[(2R)-2-[(3R,5S)-3,5-difluoropiperidin-1-yl]propyl]-3-methanesulfonamido-1H-indazol-7-yl}-7-(4,4-difluorocyclohexyl)-5-methyl-4-oxo-3H,4H-pyrido[2,3-d]pyrimidin-2-yl]-2-(3,5-difluorophenyl)ethyl]-2-[(2R*,4R*)-9-cyclopropyl-7,8-diazatricyclo[4.3.0.0^2,^4]nona-1(6),8-dien-7-yl]acetamide], the EC50 in series [1] was 0.01 nM. For the same compound, the CC50 at 4 days in series [2] was > 20 nM.

Regarding `Cc1cc(C2CCC(F)(F)CC2)nc2nc([C@H](Cc3cc(F)cc(F)c3)NC(=O)Cn3nc(C4CC4)c4c3C[C@@H]3C[C@H]43)n(-c3ccc(Cl)c4c(NS(C)(=O)=O)nn(CC5(N6C[C@@H](C)O[C@@H](C)C6)CC5)c34)c(=O)c12` (relative stereo) [Example 691, N-[(1S)-1-[(3P)-3-[4-chloro-1-({1-[(2R,6S)-2,6-dimethylmorpholin-4-yl]cyclopropyl}methyl)-3-methanesulfonamido-1H-indazol-7-yl]-7-(4,4-difluorocyclohexyl)-5-methyl-4-oxo-3H,4H-pyrido[2,3-d]pyrimidin-2-yl]-2-(3,5-difluorophenyl)ethyl]-2-[(2R*,4R*)-9-cyclopropyl-7,8-diazatricyclo[4.3.0.0^2,^4]nona-1(6),8-dien-7-yl]acetamide], the EC50 in series [1] was 0.007 nM. For the same compound, the CC50 at 4 days in series [2] was > 20 nM.

Regarding `C[C@H](O)c1cc(C2CCC(F)(F)CC2)nc2nc([C@H](Cc3cc(F)cc(F)c3)NC(=O)Cn3nc(C(F)F)c4c3C(F)(F)[C@@H]3C[C@H]43)n(-c3ccc(Cl)c4c(NS(C)(=O)=O)nn(CCN5CCC(F)(F)CC5)c34)c(=O)c12` (relative stereo) [Example 698, N-[(1S)-1-[(3P)-3-{4-chloro-1-[2-(4,4-difluoropiperidin-1-yl)ethyl]-3-methanesulfonamido-1H-indazol-7-yl}-7-(4,4-difluorocyclohexyl)-5-[(1R**)-1-hydroxyethyl]-4-oxo-3H,4H-pyrido[2,3-d]pyrimidin-2-yl]-2-(3,5-difluorophenyl)ethyl]-2-[(2R*,4S*)-9-(difluoromethyl)-5,5-difluoro-7,8-diazatricyclo[4.3.0.0^2,4]nona-1(6),8-dien-7-yl]acetamide], the EC50 in series [1] is 0.027 nM. For the same compound, in series [2], the CC50 at 4 days is > 20 nM.

Take `Cc1cc(C2(F)CCC(F)(F)CC2)nc2nc([C@H](Cc3cc(F)cc(F)c3)NC(=O)Cn3nc(C4CC4)c4c3C[C@@H]3C[C@H]43)n(-c3ccc(Cl)c4c(NS(C)(=O)=O)nn(C[C@@H](C)N5C[C@H](F)C[C@H](F)C5)c34)c(=O)c12` (relative stereo) [Example 702, N-[(1S)-1-[(3P)-3-{4-chloro-1-[(2R)-2-[(3R,5S)-3,5-difluoropiperidin-1-yl]propyl]-3-methanesulfonamido-1H-indazol-7-yl}-5-methyl-4-oxo-7-(1,4,4-trifluorocyclohexyl)-3H,4H-pyrido[2,3-d]pyrimidin-2-yl]-2-(3,5-difluorophenyl)ethyl]-2-[(2R*,4R*)-9-cyclopropyl-7,8-diazatricyclo[4.3.0.0^2,^4]nona-1(6),8-dien-7-yl]acetamide]: the EC50 in series [1] was found to be 0.016 nM. In addition, the CC50 at 4 days in series [2] is > 20 nM.

On to `Cc1cc(C2CCC(F)(F)CC2)nc2nc([C@H](Cc3cc(F)cc(F)c3)NC(=O)Cn3nc(C4CC4)c4c3C[C@@H]3C[C@H]43)n(-c3ccc(Cl)c4c(NS(C)(=O)=O)nn(C[C@H](C)N5CC(C)(C)OC(C)(C)C5)c34)c(=O)c12` (relative stereo) [Example 714, N-[(1S)-1-[(3P)-3-{4-chloro-3-methanesulfonamido-1-[(2S)-2-(2,2,6,6-tetramethylmorpholin-4-yl)propyl]-1H-indazol-7-yl}-7-(4,4-difluorocyclohexyl)-5-methyl-4-oxo-3H,4H-pyrido[2,3-d]pyrimidin-2-yl]-2-(3,5-difluorophenyl)ethyl]-2-[(2R*,4R*)-9-cyclopropyl-7,8-diazatricyclo[4.3.0.0^2,4]nona-1(6),8-dien-7-yl]acetamide], for which the EC50 in series [1] was found to be 0.024 nM. The CC50 at 4 days in series [2] was > 20 nM.

Turning to `Cc1cc(C2(F)CCC(F)(F)CC2)nc2nc([C@H](Cc3cc(F)cc(F)c3)NC(=O)Cn3nc(C4CC4)c4c3C[C@@H]3C[C@H]43)n(-c3ccc(Cl)c4c(NS(C)(=O)=O)nn(C[C@H](C)N5C[C@@H](C)O[C@@H](C)C5)c34)c(=O)c12` (relative stereo) [Example 722, N-[(1S)-1-[(3P)-3-{4-chloro-1-[(2S)-2-[(2R,6S)-2,6-dimethylmorpholin-4-yl]propyl]-3-methanesulfonamido-1H-indazol-7-yl}-5-methyl-4-oxo-7-(1,4,4-trifluorocyclohexyl)-3H,4H-pyrido[2,3-d]pyrimidin-2-yl]-2-(3,5-difluorophenyl)ethyl]-2-[(2R*,4R*)-9-cyclopropyl-7,8-diazatricyclo[4.3.0.0^2,^4]nona-1(6),8-dien-7-yl]acetamide], in series [1], the EC50 stood at 0.007 nM. Also, the CC50 at 4 days in series [2] was > 20 nM.

For the compound `Cc1cc(C2(F)CCC(F)(F)CC2)nc2nc([C@H](Cc3cc(F)cc(F)c3)NC(=O)Cn3nc(C4CC4)c4c3C[C@@H]3C[C@H]43)n(-c3ccc(Cl)c4c(NS(C)(=O)=O)nn(C[C@@H](C)N5C[C@@H](C)O[C@@H](C)C5)c34)c(=O)c12` (relative stereo) [Example 723, N-[(1S)-1-[(3P)-3-{4-chloro-1-[(2R)-2-[(2R,6S)-2,6-dimethylmorpholin-4-yl]propyl]-3-methanesulfonamido-1H-indazol-7-yl}-5-methyl-4-oxo-7-(1,4,4-trifluorocyclohexyl)-3H,4H-pyrido[2,3-d]pyrimidin-2-yl]-2-(3,5-difluorophenyl)ethyl]-2-[(2R*,4R*)-9-cyclopropyl-7,8-diazatricyclo[4.3.0.0^2,^4]nona-1(6),8-dien-7-yl]acetamide], the EC50 in series [1] came out at 0.012 nM. The CC50 at 4 days in series [2] was > 20 nM.
